biological target: human Cav2.2 (Homo sapiens, UniProt Q00975); assay: Assessment of calcium channel activity using FLIPR (Ca2+ influx in IMR32 cells); type: cell-based; conditions: IMR32 cells endogenously expressing human Cav2.2; 60 minute pre-incubation; 2 μM nifedipine; depolarized with 80 mM KCl, 5 mM CaCl2
Procedure: (i) In Vitro Methods—Assessment of Calcium Channel Activity Using FLIPR:
The IMR32 cells were maintained in MEM media containing 10% (v/v) FBS, 1% (v/v) antibiotic/antimitotic, 1% (v/v) sodium pyruvate and 1% (v/v) MEM NEAA. Following dissociation in 0.05% (v/v) trypsin/EDTA, cells were seeded into black 1×96-well plates (Corning Cellbind) at a density of 1-1.2×10^5 cells/well and incubated in the maintenance media above for 48 hours at 37° C. […] After dye loading and a subsequent 60 minute pre-incubation with compounds (full log dilutions from 10 μM to 0.1 nM) in the presence of 1.3 mM CaCl2 and 2 μM nifedipine to block endogenous L-type channels, the external Ca^2+ concentration was increased to 5 mM CaCl2 and the cells concomitantly depolarized with 80 mM KCl to assay channel activity. To determine the IC50 values, the percent inhibition of the compound at each concentration was determined relative to the activity in the absence of inhibitor, and data was fitted using non-linear regression sigmoidal dose response curve analysis with GraphPad Prism®.

Sequence of human Cav2.2 (Q00975 whole entry): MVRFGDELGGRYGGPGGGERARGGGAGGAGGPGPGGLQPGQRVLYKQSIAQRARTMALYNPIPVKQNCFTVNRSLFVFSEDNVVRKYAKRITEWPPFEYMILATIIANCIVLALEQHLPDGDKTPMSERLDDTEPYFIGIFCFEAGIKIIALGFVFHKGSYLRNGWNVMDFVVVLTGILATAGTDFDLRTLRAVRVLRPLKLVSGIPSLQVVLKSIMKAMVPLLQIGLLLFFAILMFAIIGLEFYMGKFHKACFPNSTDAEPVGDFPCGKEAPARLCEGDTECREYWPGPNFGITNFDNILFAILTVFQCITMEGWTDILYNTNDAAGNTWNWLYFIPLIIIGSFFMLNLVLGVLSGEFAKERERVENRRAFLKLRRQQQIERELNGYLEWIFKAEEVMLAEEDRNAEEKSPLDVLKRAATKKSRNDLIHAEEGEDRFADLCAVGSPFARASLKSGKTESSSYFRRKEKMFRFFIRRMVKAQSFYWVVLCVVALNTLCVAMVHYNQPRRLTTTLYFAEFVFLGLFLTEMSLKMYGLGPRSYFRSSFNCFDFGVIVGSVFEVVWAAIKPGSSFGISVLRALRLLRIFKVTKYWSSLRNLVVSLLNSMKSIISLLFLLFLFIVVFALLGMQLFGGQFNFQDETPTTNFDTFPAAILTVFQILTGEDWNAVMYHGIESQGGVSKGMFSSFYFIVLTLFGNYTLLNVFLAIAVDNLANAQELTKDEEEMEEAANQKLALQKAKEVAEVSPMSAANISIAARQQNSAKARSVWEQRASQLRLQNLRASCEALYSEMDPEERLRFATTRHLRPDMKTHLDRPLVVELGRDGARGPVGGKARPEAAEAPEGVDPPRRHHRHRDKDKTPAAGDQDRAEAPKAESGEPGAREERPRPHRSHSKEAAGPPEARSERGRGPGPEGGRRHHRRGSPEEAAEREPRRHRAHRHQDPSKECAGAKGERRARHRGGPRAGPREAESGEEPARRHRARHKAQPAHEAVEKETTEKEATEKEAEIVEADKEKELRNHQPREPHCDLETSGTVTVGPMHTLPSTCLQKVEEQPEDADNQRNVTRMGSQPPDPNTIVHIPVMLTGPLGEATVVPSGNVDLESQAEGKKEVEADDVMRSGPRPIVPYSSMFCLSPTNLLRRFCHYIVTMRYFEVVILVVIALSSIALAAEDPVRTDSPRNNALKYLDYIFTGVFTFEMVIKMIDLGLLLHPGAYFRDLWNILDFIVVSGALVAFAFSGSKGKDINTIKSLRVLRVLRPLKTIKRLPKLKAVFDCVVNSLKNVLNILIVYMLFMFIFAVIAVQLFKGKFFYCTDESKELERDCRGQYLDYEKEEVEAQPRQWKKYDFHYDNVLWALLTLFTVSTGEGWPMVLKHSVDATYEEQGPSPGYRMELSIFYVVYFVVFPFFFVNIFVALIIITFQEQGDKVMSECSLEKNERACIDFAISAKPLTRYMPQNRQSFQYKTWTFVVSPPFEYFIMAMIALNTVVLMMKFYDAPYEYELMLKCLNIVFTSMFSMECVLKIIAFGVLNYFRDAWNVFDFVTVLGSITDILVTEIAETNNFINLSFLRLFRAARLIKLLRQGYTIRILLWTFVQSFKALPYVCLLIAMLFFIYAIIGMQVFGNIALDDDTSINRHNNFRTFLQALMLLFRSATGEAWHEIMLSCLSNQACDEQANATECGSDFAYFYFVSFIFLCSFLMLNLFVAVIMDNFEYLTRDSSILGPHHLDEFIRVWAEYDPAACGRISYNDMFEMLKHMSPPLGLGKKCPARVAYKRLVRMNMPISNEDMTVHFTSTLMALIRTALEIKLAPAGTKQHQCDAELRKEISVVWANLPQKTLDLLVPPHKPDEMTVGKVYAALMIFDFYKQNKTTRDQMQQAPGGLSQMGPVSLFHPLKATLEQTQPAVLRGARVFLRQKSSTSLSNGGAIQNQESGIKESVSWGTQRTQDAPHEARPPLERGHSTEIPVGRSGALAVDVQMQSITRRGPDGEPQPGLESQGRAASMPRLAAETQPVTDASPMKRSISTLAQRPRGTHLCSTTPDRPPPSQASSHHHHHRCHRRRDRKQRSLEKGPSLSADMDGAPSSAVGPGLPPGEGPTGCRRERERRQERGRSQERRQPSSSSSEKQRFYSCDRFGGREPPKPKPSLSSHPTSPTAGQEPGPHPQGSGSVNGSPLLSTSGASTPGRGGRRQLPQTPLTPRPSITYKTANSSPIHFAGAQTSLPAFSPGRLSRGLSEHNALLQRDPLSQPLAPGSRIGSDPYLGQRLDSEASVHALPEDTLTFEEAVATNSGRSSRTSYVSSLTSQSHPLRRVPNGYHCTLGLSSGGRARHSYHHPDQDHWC
Sequence of human Cav2.2 (P54289 25-951 partner limits assumed): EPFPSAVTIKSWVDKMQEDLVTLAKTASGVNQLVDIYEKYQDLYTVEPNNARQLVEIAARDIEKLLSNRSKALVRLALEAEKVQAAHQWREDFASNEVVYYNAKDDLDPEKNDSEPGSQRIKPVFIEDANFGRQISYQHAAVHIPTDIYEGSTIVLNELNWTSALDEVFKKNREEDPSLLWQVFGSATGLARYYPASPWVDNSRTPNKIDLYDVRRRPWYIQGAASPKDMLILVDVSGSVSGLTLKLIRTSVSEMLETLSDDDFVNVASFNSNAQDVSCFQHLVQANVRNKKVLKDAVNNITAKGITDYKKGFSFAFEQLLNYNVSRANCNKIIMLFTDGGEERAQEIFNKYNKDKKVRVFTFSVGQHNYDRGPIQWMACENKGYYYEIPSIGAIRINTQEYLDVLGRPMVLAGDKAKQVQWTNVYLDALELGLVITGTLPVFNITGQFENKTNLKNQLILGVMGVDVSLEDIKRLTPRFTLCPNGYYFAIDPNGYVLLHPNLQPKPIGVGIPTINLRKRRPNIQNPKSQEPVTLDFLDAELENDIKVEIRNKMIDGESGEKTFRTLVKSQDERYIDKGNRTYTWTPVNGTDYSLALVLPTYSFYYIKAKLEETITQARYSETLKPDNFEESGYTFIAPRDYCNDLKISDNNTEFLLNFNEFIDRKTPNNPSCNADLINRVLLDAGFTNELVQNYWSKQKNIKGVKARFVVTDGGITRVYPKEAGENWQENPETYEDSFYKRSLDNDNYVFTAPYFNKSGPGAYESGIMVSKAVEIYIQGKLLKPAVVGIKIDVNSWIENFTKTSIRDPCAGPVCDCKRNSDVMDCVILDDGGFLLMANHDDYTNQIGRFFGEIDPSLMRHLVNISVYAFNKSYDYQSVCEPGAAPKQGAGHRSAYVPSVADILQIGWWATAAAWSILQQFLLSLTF
Sequence of human Cav2.2 (P54289 952-1103 partner limits assumed): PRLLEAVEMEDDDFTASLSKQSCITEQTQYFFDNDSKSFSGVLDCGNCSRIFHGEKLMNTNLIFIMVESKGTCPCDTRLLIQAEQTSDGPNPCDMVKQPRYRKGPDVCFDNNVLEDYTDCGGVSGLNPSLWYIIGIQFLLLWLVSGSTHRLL
Sequence of human Cav2.2 (P54284 whole entry partner): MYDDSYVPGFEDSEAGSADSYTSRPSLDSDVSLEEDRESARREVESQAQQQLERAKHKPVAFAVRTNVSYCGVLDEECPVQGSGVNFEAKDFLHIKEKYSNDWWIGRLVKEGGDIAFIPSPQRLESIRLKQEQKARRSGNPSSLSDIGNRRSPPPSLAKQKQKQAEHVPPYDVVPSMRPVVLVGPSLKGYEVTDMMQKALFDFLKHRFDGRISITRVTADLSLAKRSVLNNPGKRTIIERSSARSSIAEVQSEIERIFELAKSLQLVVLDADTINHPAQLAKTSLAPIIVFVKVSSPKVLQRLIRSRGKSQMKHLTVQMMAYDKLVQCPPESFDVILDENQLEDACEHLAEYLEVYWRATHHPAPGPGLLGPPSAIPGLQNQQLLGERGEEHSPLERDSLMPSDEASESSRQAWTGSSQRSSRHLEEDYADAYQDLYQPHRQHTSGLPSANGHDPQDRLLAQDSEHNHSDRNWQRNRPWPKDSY

| Structure (SMILES) | IC50 [µM] |
| --- | --- |
| O=C1N(S(=O)(=O)c2ccc(C(F)(F)F)cc2Cl)CCC1(c1ccccc1)c1ccccc1 [Example 151, 1-{[2-chloro-4-(trifluoromethyl)phenyl]sulfonyl}-3,3-diphenylpyrrolidin-2-one] | 18.3 |
| CN(CCCN1CCCC(c2ccccc2)(c2ccccc2)C1=O)CCc1ccccc1 [Example 117, 1-{3-[methyl(2-phenylethyl)amino]propyl}-3,3-diphenylpiperidin-2-one] | 3.46 |
| O=C(CN1CCCC(c2ccccc2)(c2ccccc2)C1=O)N1CCOC(c2ccccc2)C1 (stereo not drawn) [Example 70, 1-[2-oxo-2-(2-phenylmorpholin-4-yl)ethyl]-3,3-diphenylpiperidin-2-one] | 7.22 |
| O=C(CN1CCC(c2ccc(F)cc2)(c2ccc(F)cc2)C1=O)Nc1ccc(C(F)(F)F)nc1 [Example 224, 2-[3,3-bis(4-fluorophenyl)-2-oxopyrrolidin-1-yl]-N-[6-(trifluoromethyl)pyridin-3-yl]acetamide] | 3.88 |
| O=C1N(Cc2nc(-c3ccc(Cl)nc3)no2)CCC1(c1ccccc1)c1ccccc1 [Example 214, 1-{[3-(6-chloropyridin-3-yl)-1,2,4-oxadiazol-5-yl]methyl}-3,3-diphenylpyrrolidin-2-one] | 2.78 |
| O=C(CN1CCC(c2ccc(Cl)c(Cl)c2)C1=O)N1Cc2ccc(F)cc2C1 (stereo not drawn) [Example 270, 3-(3,4-dichlorophenyl)-1-[2-(5-fluoro-1,3-dihydro-2H-isoindol-2-yl)-2-oxoethyl]pyrrolidin-2-one] | 5.25 |
| O=C(CN1CCCC(c2ccccc2)(c2ccccc2)C1=O)N1CCC(Oc2ccc(Cl)cc2)CC1 [Example 158, 1-{2-[4-(4-chlorophenoxy)piperidin-1-yl]-2-oxoethyl}-3,3-diphenylpiperidin-2-one] | 4.07 |
| O=C1N(Cc2nc(-c3cc(F)cc(F)c3)no2)CCC1(c1ccccc1)c1ccccc1 [Example 215, 1-{[3-(3,5-difluorophenyl)-1,2,4-oxadiazol-5-yl]methyl}-3,3-diphenylpyrrolidin-2-one] | 6.89 |
| Cc1ccc(-c2noc(CN3CCC(c4ccccc4)(c4ccccc4)C3=O)n2)cc1 [Example 195, 1-{[3-(4-methylphenyl)-1,2,4-oxadiazol-5-yl]methyl}-3,3-diphenylpyrrolidin-2-one] | 3.57 |
| O=C1N(S(=O)(=O)c2ccccc2C(F)(F)F)CCC1(c1ccccc1)c1ccccc1 [Example 148, 3,3-diphenyl-1-{[2-(trifluoromethyl)phenyl]sulfonyl}pyrrolidin-2-one] | 6.88 |
| O=C(CN1CCC(c2ccc(F)cc2)C1=O)N1CCc2ccccc2C1 (stereo not drawn) [Example 253, 1-[2-(3,4-dihydroisoquinolin-2(1H)-yl)-2-oxoethyl]-3-(4-fluorophenyl)pyrrolidin-2-one] | 10.6 |
| O=C(CN1CCC[C@@H](c2ccccc2)C1=O)N1Cc2ccc(F)cc2C1 (single isomer, unassigned) [Example 187] | > 30 |
| Cn1ccc(CNC(=O)CN2CCC(c3ccccc3)(c3ccccc3)C2=O)n1 [Example 4, N-[(1-methyl-1H-pyrazol-3-yl)methyl]-2-(2-oxo-3,3-diphenylpyrrolidin-1-yl)acetamide] | 29.8 |
| O=C1N(Cc2nc(-c3ccc(F)cc3)no2)CCCC1(c1ccccc1)c1ccccc1 [Example 100, 1-{[3-(4-fluorophenyl)-1,2,4-oxadiazol-5-yl]methyl}-3,3-diphenylpiperidin-2-one] | 5.29 |
| O=C1N(Cc2nc(-c3ccc(Cl)cc3)no2)CCCC1(c1ccccc1)c1ccccc1 [Example 170, 1-{[3-(4-chlorophenyl)-1,2,4-oxadiazol-5-yl]methyl}-3,3-diphenylpiperidin-2-one] | 6.7 |
| O=C(CN1CCC(c2ccccc2)(c2ccccc2)C1=O)N1CCN(c2ccc(Cl)cn2)CC1 [Example 53, 1-{2-[4-(5-chloropyridin-2-yl)piperazin-1-yl]-2-oxoethyl}-3,3-diphenylpyrrolidin-2-one] | 4.02 |

Now those with a lower IC50, led by results:

| IC50 [µM] | Structure (SMILES) |
| --- | --- |
| 2.68 | COc1ccc(C2(c3ccc(OC)cc3)CCCN(CCCN(C)CCc3cc(OC)cc(OC)c3)C2=O)cc1 [Example 119, 1-{3-[[2-(3,5-dimethoxyphenyl)ethyl](methyl)amino]propyl}-3,3-bis(4-methoxyphenyl)piperidin-2-one] |
| 2.48 | O=C(CN1CCC(c2ccc(F)cc2)(c2ccc(F)cc2)C1=O)Nc1ccc(Cl)cn1 [Example 225, 2-[3,3-bis(4-fluorophenyl)-2-oxopyrrolidin-1-yl]-N-(5-chloropyridin-2-yl)acetamide] |
| 2.33 | O=C(CN1CCC(c2ccccc2)(c2ccccc2)C1=O)NCc1cccc(C(F)(F)F)c1 [Example 7, 2-(2-oxo-3,3-diphenylpyrrolidin-1-yl)-N-[3-(trifluoromethyl)benzyl]acetamide] |
| 2.22 | O=C(CN1CCC(c2ccccc2)(c2ccccc2)C1=O)N1CCN(Cc2ccc(F)cc2)CC1 [Example 38, 1-{2-[4-(4-fluorobenzyl)piperazin-1-yl]-2-oxoethyl}-3,3-diphenylpyrrolidin-2-one] |
| 2.02 | COc1ccc(CC2(C)CN(C(=O)CN3CCC(c4ccccc4)(c4ccccc4)C3=O)CCN2)cc1OC (stereo not drawn) [Example 167, 1-{2-[3-(3,4-dimethoxybenzyl)-3-methylpiperazin-1-yl]-2-oxoethyl}-3,3-diphenylpyrrolidin-2-one] |
| 1.8 | O=C(CN1CCCC(c2ccccc2)(c2ccccc2)C1=O)N1CCN(Cc2ccc(Cl)cc2Cl)CC1 [Example 169, 1-{2-[4-(2,4-dichlorobenzyl)piperazin-1-yl]-2-oxoethyl}-3,3-diphenylpiperidin-2-one] |
| 1.71 | CC(CNC(=O)CN1CCCC(c2ccccc2)(c2ccccc2)C1=O)(c1ccccc1)c1ccccc1 [Example 77, N-(2,2-diphenylpropyl)-2-(2-oxo-3,3-diphenylpiperidin-1-yl)acetamide] |
| 1.67 | COc1cccc(CCN(C)CCN2CCCC(c3ccc(F)cc3)(c3ccc(F)cc3)C2=O)c1 [Example 120, 3,3-bis(4-fluorophenyl)-1-{2-[[2-(3-methoxyphenyl)ethyl](methyl)amino]ethyl}piperidin-2-one] |
| 1.49 | COc1ccc(C2(c3ccc(OC)cc3)CCCN(CCN(C)CCc3ccc(OC)cc3OC)C2=O)cc1 [Example 126, 1-{2-[[2-(2,4-dimethoxyphenyl)ethyl](methyl)amino]ethyl}-3,3-bis(4-methoxyphenyl)piperidin-2-one] |
| 1.27 | O=C(CN1CCCC(c2ccccc2)(c2ccccc2)C1=O)N1CCN(Cc2ccc(F)c(C(F)(F)F)c2)CC1 [Example 184, 1-(2-{4-[4-fluoro-3-(trifluoromethyl)benzyl]piperazin-1-yl}-2-oxoethyl)-3,3-diphenylpiperidin-2-one] |
| 1.1 | O=C(CN1CCC(c2ccccc2)(c2ccccc2)C1=O)N[C@H]1CC[C@H]2CN(Cc3cccc(C(F)(F)F)c3)C[C@H]21 (relative stereo) [Example 56, 2-(2-oxo-3,3-diphenylpyrrolidin-1-yl)-N-{(3aS*,4S*,6aR*)-2-[3-(trifluoromethyl)benzyl]octahydrocyclopenta[c]pyrrol-4-yl}acetamide] |
| 1.03 | O=C(CN1CCCC(c2ccccc2)(c2ccccc2)C1=O)NC1CN(C(c2ccccc2)c2ccccc2)C1 [Example 176, N-(1-benzhydrylazetidin-3-yl)-2-(2-oxo-3,3-diphenylpiperidin-1-yl)acetamide] |
| 1 | CN(C(=O)CN1CCCC(c2ccccc2)(c2ccccc2)C1=O)C1CCN(Cc2cccc(C(F)(F)F)c2)CC1 [Example 197, N-methyl-2-(2-oxo-3,3-diphenylpiperidin-1-yl)-N-{1-[3-(trifluoromethyl)benzyl]piperidin-4-yl}acetamide] |
| 0.9 | CC(CNC(=O)CN1CCC(c2ccccc2)(c2ccccc2)C1=O)(c1ccccc1)c1ccccc1 [Example 16, N-(2,2-diphenylpropyl)-2-(2-oxo-3,3-diphenylpyrrolidin-1-yl)acetamide] |
| 0.87 | O=C(CN1CCC(c2ccccc2)(c2ccccc2)C1=O)NCC(c1ccccc1)c1ccccc1 [Example 15, N-(2,2-diphenylethyl)-2-(2-oxo-3,3-diphenylpyrrolidin-1-yl)acetamide] |
| 0.86 | O=C(NC1CC1)c1cccc(S(=O)(=O)N2CCC(c3ccccc3)(c3ccccc3)C2=O)c1 [Example 150, N-cyclopropyl-3-[(2-oxo-3,3-diphenylpyrrolidin-1-yl)sulfonyl]benzamide] |
| 0.81 | O=C(CN1CCC(c2ccccc2)(c2ccccc2)C1=O)N1CCCC(c2ccccc2)(c2ccccc2)C1 [Example 24, 1-[2-(3,3-diphenylpiperidin-1-yl)-2-oxoethyl]-3,3-diphenylpyrrolidin-2-one] |
| 0.77 | CC(c1cccc(C(F)(F)F)c1)N1CCN(C(=O)CN2CCC(c3ccccc3)(c3ccccc3)C2=O)CC1 (stereo not drawn) [Example 44, 1-[2-oxo-2-(4-{1-[3-(trifluoromethyl)phenyl]ethyl}piperazin-1-yl)ethyl]-3,3-diphenylpyrrolidin-2-one] |
| 0.41 | O=C(CN1CCCC(c2ccccc2)(c2ccccc2)C1=O)NC1CCN(C(c2ccccc2)c2ccccc2)CC1 [Example 85, N-(1-benzhydrylpiperidin-4-yl)-2-(2-oxo-3,3-diphenylpiperidin-1-yl)acetamide] |
| 0.41 | O=C(CN1CCCC(c2ccccc2)(c2ccccc2)C1=O)N1CCN(S(=O)(=O)c2cccc(C(F)(F)F)c2)CC1 [Example 84, 1-[2-oxo-2-(4-{[3-(trifluoromethyl)phenyl]sulfonyl}piperazin-1-yl)ethyl]-3,3-diphenylpiperidin-2-one] |

Source: patent US8044069B2, “Compounds as calcium channel blockers” (Abbott Laboratories, priority 2008, dated 2011)
